From ChEMBL document CHEMBL5260846, “Emerging targets and potential therapeutic agents in non-alcoholic fatty liver disease treatment” (Eur J Med Chem, 2020)

Legend:
Hepatocyte = test: Anti-fibrosis effect in CCl4 induced lipid peroxidation in rat hepatocytes by measuring MDA formation incubated for 1 hr by TBARS method; assay type: functional, cell-based
[1] = biological target: C-C chemokine receptor type 5 (Homo sapiens, UniProt P51681); test: Antagonist at CCR5 (unknown origin) assessed as inhibitory constant
[2] = tested on: Human immunodeficiency virus 1; test: Antiviral activity against M tropic HIV-1 Ba-L infected in human HeLa-MAGI-CCR5 cells assessed as inhibition of viral replication; assay type: functional, organism-based; conditions: Human immunodeficiency virus 1, Ba-L
[3] = biological target: T1, Peroxisome proliferator-activated receptor alpha (Homo sapiens, UniProt Q07869); test: Binding affinity to PPARalpha (unknown origin)
T1 sequence (Q07869 whole entry): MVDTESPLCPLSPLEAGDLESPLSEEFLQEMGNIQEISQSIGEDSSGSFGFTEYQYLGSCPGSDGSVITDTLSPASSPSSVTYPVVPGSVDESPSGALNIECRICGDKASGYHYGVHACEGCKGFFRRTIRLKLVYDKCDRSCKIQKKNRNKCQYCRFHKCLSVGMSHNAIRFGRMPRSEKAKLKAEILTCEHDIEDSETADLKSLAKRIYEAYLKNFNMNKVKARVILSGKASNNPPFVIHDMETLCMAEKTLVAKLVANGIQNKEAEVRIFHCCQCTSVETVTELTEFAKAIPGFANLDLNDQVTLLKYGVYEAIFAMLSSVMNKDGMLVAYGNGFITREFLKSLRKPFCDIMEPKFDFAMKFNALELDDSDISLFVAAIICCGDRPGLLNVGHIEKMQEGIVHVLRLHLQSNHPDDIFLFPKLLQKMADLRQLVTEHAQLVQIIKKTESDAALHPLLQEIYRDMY

[4] = biological target: T1, Peroxisome proliferator-activated receptor alpha; test: Agonist activity at PPARalpha (unknown origin) assessed as transcriptional activation
[5] = biological target: T2, Peroxisome proliferator-activated receptor gamma (Homo sapiens, UniProt P37231); test: Agonist activity at PPARgamma (unknown origin) assessed as transcriptional activation
T2 sequence (P37231 whole entry): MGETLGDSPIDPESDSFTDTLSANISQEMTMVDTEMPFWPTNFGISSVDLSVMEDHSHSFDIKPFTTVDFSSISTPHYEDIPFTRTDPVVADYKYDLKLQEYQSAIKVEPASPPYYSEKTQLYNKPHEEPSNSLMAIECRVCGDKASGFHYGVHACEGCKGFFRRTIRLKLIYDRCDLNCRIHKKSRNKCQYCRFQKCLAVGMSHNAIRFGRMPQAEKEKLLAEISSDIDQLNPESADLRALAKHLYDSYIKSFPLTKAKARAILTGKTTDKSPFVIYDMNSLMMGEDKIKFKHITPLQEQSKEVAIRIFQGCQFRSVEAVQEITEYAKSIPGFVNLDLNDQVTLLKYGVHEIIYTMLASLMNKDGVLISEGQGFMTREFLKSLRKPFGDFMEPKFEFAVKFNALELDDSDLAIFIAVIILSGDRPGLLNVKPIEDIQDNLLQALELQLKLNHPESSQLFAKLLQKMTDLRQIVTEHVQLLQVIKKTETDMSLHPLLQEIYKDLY

[6] = biological target: T3, Peroxisome proliferator-activated receptor alpha (Mus musculus, UniProt P23204); test: Agonist activity at mouse PPARalpha
T3 sequence (P23204 whole entry): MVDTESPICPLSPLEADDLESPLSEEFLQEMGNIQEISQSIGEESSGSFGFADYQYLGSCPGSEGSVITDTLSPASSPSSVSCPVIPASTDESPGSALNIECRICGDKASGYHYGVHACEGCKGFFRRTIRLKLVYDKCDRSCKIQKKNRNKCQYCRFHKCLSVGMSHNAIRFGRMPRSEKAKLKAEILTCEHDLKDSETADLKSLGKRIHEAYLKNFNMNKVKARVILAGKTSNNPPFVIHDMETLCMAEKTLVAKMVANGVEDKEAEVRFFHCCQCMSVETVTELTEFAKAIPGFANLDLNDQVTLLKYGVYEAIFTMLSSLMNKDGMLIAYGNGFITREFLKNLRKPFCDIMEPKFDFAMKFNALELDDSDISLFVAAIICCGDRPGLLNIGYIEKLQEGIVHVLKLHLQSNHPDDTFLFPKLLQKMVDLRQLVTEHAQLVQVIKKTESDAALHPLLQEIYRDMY

[7] = biological target: T1, Peroxisome proliferator-activated receptor alpha; test: Agonist activity at PPARalpha in human HepG2 cells; assay type: cell-based
[8] = biological target: T1, Peroxisome proliferator-activated receptor alpha; test: Agonist activity at PPARalpha (unknown origin)
[9] = biological target: T4, Peroxisome proliferator-activated receptor delta (Homo sapiens, UniProt Q03181); test: Agonist activity at PPARdelta (unknown origin)
T4 sequence (Q03181 whole entry): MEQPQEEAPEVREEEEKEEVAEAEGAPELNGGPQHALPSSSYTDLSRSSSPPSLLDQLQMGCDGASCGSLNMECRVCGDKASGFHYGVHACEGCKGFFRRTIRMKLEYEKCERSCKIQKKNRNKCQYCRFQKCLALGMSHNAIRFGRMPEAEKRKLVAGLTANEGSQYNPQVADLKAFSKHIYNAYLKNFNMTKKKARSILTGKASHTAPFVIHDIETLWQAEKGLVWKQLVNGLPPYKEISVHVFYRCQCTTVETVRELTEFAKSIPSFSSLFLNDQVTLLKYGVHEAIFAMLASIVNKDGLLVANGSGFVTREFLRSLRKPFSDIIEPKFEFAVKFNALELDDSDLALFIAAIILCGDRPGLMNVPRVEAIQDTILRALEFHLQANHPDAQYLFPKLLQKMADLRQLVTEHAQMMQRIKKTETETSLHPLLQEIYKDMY

Sequence of C-C chemokine receptor type 5 (P51681 whole entry): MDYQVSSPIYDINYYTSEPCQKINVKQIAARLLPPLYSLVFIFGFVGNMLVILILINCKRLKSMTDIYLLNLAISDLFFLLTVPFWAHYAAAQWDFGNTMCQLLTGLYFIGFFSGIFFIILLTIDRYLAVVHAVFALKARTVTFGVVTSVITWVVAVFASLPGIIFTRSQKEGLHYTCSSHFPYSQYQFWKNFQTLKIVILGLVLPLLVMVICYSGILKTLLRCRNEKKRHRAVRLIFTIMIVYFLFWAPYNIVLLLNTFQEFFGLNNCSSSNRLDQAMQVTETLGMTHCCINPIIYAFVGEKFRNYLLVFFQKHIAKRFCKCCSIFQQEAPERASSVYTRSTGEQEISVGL

## O=C(/C=C/c1ccc(O)c2c1[C@@H](C(=O)O[C@H](Cc1ccc(O)c(O)c1)C(=O)O)[C@H](c1ccc(O)c(O)c1)O2)O[C@H](Cc1ccc(O)c(O)c1)C(=O)O
Hepatocyte
  IC50: 2.75 mM

## Cc1ccc(-c2ccc3c(c2)C=C(C(=O)Nc2ccc(C[N+](C)(C)C4CCOCC4)cc2)CCC3)cc1
[1]
  Ki: 1.1 nM
[2]
  EC50: 1.2 nM
  EC90: 5.7 nM

## COc1ccc(Oc2cc(N(C)CCOc3ccc(CC4SC(=O)NC4=O)cc3)ncn2)cc1 (configuration not stated) [LOBEGLITAZONE]
[3]
  EC50: 20 µM

## CSc1ccc(C(=O)/C=C/c2cc(C)c(OC(C)(C)C(=O)O)c(C)c2)cc1 [ELAFIBRANOR]
[4]
  EC50: 45 nM
[5]
  EC50: 175 nM

## CC(C)(Oc1ccc(CCNC(=O)c2ccc(Cl)cc2)cc1)C(=O)O [BEZAFIBRATE]
[6]
  EC50: 50 µM

## CCO[C@@H](Cc1ccc(OCCn2c(C)ccc2-c2ccc(SC)cc2)cc1)C(=O)O [SAROGLITAZAR]
[7]
  EC50: 0.65 pM

## Cc1ccc(C)c(OCCCC(C)(C)C(=O)O)c1 [GEMFIBROZIL]
[8]
  EC50: 15.2 µM

## CCCc1c(OCCCOc2ccc(OCC(=O)O)cc2)ccc(C(C)=O)c1O
[9]
  EC50: 50 nM

## CCOC(=O)C(C)(C)Oc1ccc(Cl)cc1 [CLOFIBRATE]
[6]
  EC50: 55 µM
